# Patent US6495591B1, “Fungal efflux pump inhibitors” (Essential Therapeutics, Inc., priority 1997, dated 2002)
# Like-named read-outs stand apart in the source and are kept apart here.
# Tests used:
# [1] = system: S. cerevisiae YEM-39 (CgCDR introduced); assay: microbe, parasite or virus in culture; type: cell-based; conditions: Saccharomyces cerevisiae, read-out: MIC Mb alone
# [2] = molecular target: BenR pump (Candida albicans, UniProt P28873); assay: Follow-up evaluation of screening hit, efflux pump inhibition; conditions: follow-up evaluation of screen hit
# Experimental: An exemplary screen uses C. albicans (e.g., ATCC10231) grown in YPD medium (medium described in “Guide to Yeast Genetics and Molecular Biology”, in Methods in Enzymolopy, vol. 194, pp.13, 1991,; Academic Press; Ed. C. Guthrie and G. Fink) at 30° C. […] Test and control cultures are inoculated with log-phase cells to provide approximately 10^3 CFU/ml. Cultures are incubated at 30° C. for 20-22 hrs. Cell concentration is determined by taking the OD600.
# [3] = system: C. albicans YEM-27 (CDR1, CDR2, BEN, FLU1 deleted); assay: microbe, parasite or virus in culture; type: cell-based
# [4] = system: C. albicans YEM-12 (low level CDR1 expressor); assay: microbe, parasite or virus in culture; type: cell-based
# [5] = system: C. albicans YEM-24 (CDR1, CDR2 deleted); assay: microbe, parasite or virus in culture; type: cell-based
# [6] = system: C. albicans YEM-15 (CDR1 and CDR2 overexpressor); assay: microbe, parasite or virus in culture; type: cell-based; conditions: Candida albicans, read-out: MIC Mb alone
# [7] = system: C. albicans YEM-13 (BEN overexpressor); assay: microbe, parasite or virus in culture; type: cell-based; conditions: Candida albicans, read-out: MIC Mb alone
# [8] = system: C. glabrata YEM-19 (CgCDR overexpression, higher than YEM-17); assay: microbe, parasite or virus in culture; type: cell-based
# [9] = system: C. glabrata YEM-19 (CgCDR overexpressor); type: cell-based
# [10] = system: P388 cell line (mouse leukemia), adriamycin sensitive; assay: Adriamycin cytotoxicity (MTT), P-glycoprotein assay
# Experimental: (§1) The inhibitory effect of milbemycin β1 against the mammalian P-glycoprotein multi-drug resistant pump was determined following the procedure described by Tsuruo et al (Cancer Res., 1981. 41:1967-1972) with slight modification. The cytotoxicity of antitumor agent, adriamycin, against adriamycin sensitive P388 cell line (mouse leukemia) and its adriamycin resistant subline line (P388/ADM) was measured in the presence of various concentrations of milbemycin β1. […] The assay is performed in serum-free media containing 20 μM of 2-mercaptoethanol. Chemosensitivity to adriamycin was determined […] based on the reduction of MTT (3-[4,5-dimethylthiazol-2-yl]-2,5-diphenyltetrazolium bromide) into blue formazan.
# [11] = system: P388/ADM, adriamycin resistant subline; assay: as above
# Experimental: as §1
# [12] = system: C. albicans YEM-13 (BEN); type: cell-based
# [13] = system: C. glabrata YEM-18 (low level CgBEN and CgCDR expression); assay: microbe, parasite or virus in culture; type: cell-based
# [14] = system: C. albicans YEM-14 (low level CDR1 expressor); assay: microbe, parasite or virus in culture; type: cell-based
# [15] = system: S. cerevisiae YEM-40 (CgCDR, MF, introduced); assay: microbe, parasite or virus in culture; type: cell-based; conditions: Saccharomyces cerevisiae, read-out: MIC Mb alone
# [16] = system: C. albicans YEM-10 (low level CDR1 expressor); assay: microbe, parasite or virus in culture; type: cell-based
# [17] = system: S. cerevisiae YEM-2 (BEN introduced); assay: microbe, parasite or virus in culture; type: cell-based; conditions: Saccharomyces cerevisiae, read-out: MIC Mb alone
# [18] = system: C. krusei; assay: microbe, parasite or virus in culture; type: cell-based
# [19] = system: C. glabrata clinical isolates (n = 12); assay: microbe, parasite or virus in culture; type: cell-based
# [20] = system: C. albicans YEM-15 (CDR1 & CDR2 overexpressor); assay: microbe, parasite or virus in culture; type: cell-based; set-up: MIC Reduction Factor, fluconazole / MIC Reduction Factor, itraconazole / MIC Reduction Factor, ketoconazole / MIC Reduction Factor, terbinafine: unit not given beside the values; conditions: for MIC: Candida albicans
# [21] = system: S. cerevisiae YEM-39 overexpressing CgCDR (C. glabrata); assay: microbe, parasite or virus in culture; type: cell-based; set-up: MIC Reduction Factor, fluconazole: unit not given beside the values; conditions: for MIC: Saccharomyces cerevisiae
# [22] = system: C. neoformans; assay: microbe, parasite or virus in culture; type: cell-based, Cryptococcus neoformans
# [23] = system: C. lipolytica; assay: microbe, parasite or virus in culture; type: cell-based; conditions: strain 828B; MIC (80%) in YPD
# [24] = Candida albicans, read-out: MIC Mb alone
# [25] = Nakaseomyces glabratus, read-out: MIC of milbemycin β1 (MB) alone
# [26] = read-out: Terbinafine MIC in the presence of FEPImax
# [27] = YEM-15, milbemycin α9 at FEPImax
# [28] = YEM-39 (CgCDR), milbemycin α9 at FEPImax
# [29] = YEM-39, milbemycin α9 at FEPImax
# BenR pump, sequence (P28873 whole entry): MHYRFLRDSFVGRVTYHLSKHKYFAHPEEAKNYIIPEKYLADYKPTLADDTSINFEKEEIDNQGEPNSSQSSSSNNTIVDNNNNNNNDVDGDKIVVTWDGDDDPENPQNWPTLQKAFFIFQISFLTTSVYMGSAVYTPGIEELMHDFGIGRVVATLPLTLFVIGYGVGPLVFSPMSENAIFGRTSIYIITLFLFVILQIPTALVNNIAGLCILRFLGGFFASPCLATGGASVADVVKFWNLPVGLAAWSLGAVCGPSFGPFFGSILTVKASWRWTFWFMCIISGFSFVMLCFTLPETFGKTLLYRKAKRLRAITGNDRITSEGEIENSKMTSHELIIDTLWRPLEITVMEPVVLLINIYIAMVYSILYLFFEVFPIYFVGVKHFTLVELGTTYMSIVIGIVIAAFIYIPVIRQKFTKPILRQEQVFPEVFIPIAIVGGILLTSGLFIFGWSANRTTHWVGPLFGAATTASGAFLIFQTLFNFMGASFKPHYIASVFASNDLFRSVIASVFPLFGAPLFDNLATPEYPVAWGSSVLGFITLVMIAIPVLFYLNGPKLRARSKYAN
structure (smiles),measurement,setting,value
"CO[C@H]1C[C@@]2(O)/C(CO)=C/C=C/[C@H](C)C/C(C)=C/C[C@@H]3C[C@@H](C[C@]4(CC[C@H](C)[C@@H](C)O4)O3)OC(=O)[C@@H]2C=C1C [Compound 6, Milbemycin β1]",MIC,[1],8 µg/mL
same,Inhibition of the BenR pump,[2],did not appreciably inhibit the BenR pump
same,MIC,[3]; [24],16 µg/mL
same,"MIC of fluconazole, Flu + Mb (2.5 μg/ml)","[3]; YEM-27, all four pumps deleted, milbemycin β1 2.5 μg/ml",0.03 µg/mL
same,Effect on fluconazole susceptibility,"[3]; YEM-27, strain which lacked all identified efflux pumps",No effect
same,MIC,[4]; [24],32 µg/mL
same,"MIC of fluconazole, Flu + Mb (2.5 μg/ml)","[4]; YEM-12, milbemycin β1 2.5 μg/ml",0.25 µg/mL
same,MIC,[5]; [24],16 µg/mL
same,"MIC of fluconazole, Flu + Mb (2.5 μg/ml)","[5]; YEM-24, CDR1, CDR2 deleted, milbemycin β1 2.5 μg/ml",0.125 µg/mL
same,MIC,[6],16 µg/mL
same,MIC,[7],32 µg/mL
same,MIC,[8]; [25],> 64 µg/mL
same,Fluconazole MIC with 2.5 μg/ml milbemycin β1,[8]; YEM-19,8 µg/mL
same,Fluconazole MIC with 5 μg/ml milbemycin β1,[8]; YEM-19,2 µg/mL
same,Fluconazole MIC with 10 μg/ml milbemycin β1,[8]; YEM-19,2 µg/mL
same,Fluconazole MIC with […] milbemycin β1,[8]; YEM-19,32 µg/mL
same,Minimal concentration required to reduce the MIC of fluconazole by sixteen-fold,[9],2.5 µg/mL
same,"Adriamycin TC50, P388",[10]; inhibitor 0.06 μg/ml,0.009 µg/mL
same,"Adriamycin TC50, P388",[10]; inhibitor 0.25 μg/ml,0.009 µg/mL
same,"Adriamycin TC50, P388",[10]; inhibitor 0.5 μg/ml,0.011 µg/mL
same,"Adriamycin TC50, P388",[10]; inhibitor 1 μg/ml,0.009 µg/mL
same,"Adriamycin TC50, P388",[10]; inhibitor 2 μg/ml,0.012 µg/mL
same,"Adriamycin TC50, P388",[10]; inhibitor 3.125 μg/ml,0.011 µg/mL
same,"Adriamycin TC50, P388",[10]; inhibitor […],0.008 µg/mL
same,"Adriamycin TC50, P388/ADM",[11]; inhibitor 0.06 μg/ml,1.955 µg/mL
same,"Adriamycin TC50, P388/ADM",[11]; inhibitor 0.25 μg/ml,0.66 µg/mL
same,"Adriamycin TC50, P388/ADM",[11]; inhibitor 0.5 μg/ml,0.369 µg/mL
same,"Adriamycin TC50, P388/ADM",[11]; inhibitor 1 μg/ml,0.215 µg/mL
same,"Adriamycin TC50, P388/ADM",[11]; inhibitor 2 μg/ml,0.05 µg/mL
same,"Adriamycin TC50, P388/ADM",[11]; inhibitor 3.125 μg/ml,0.051 µg/mL
same,"Adriamycin TC50, P388/ADM",[11]; inhibitor […],0.848 µg/mL
same,Minimal concentration required to reduce the MIC of fluconazole by sixteen-fold,[12],80 µg/mL
same,MIC,[13]; [25],> 64 µg/mL
same,Fluconazole MIC with 2.5 μg/ml milbemycin β1,[13]; YEM-18,2 µg/mL
same,Fluconazole MIC with 5 μg/ml milbemycin β1,[13]; YEM-18,2 µg/mL
same,Fluconazole MIC with 10 μg/ml milbemycin β1,[13]; YEM-18,2 µg/mL
same,Fluconazole MIC with […] milbemycin β1,[13]; YEM-18,2 µg/mL
same,MIC,[14]; [24],16 µg/mL
same,"MIC of fluconazole, Flu + Mb (2.5 μg/ml)","[14]; YEM-14, milbemycin β1 2.5 μg/ml",0.125 µg/mL
same,MIC,[15],8 µg/mL
same,MIC,[16]; [24],16 µg/mL
same,"MIC of fluconazole, Flu + Mb (2.5 μg/ml)","[16]; YEM-10, milbemycin β1 2.5 μg/ml",0.125 µg/mL
same,MIC,[17],8 µg/mL
"C/C1=C\C[C@@H]2C[C@@H](C[C@]3(CC[C@H](C)[C@@H](C)O3)O2)OC(=O)[C@@H]2C=C(COC(=O)c3ccc[nH]3)[C@@H](O)[C@H]3OC/C(=C\C=C\[C@H](C)C1)[C@]32O [Compound 11, Milbemycin α9]","Fluconazole MIC, + milbemycin α9",[18],16 µg/mL
same,"Fluconazole MIC50, + milbemycin α9",[19],2 µg/mL
same,"Fluconazole MIC Range, + milbemycin α9",[19],<0.25 to 16 µg/mL
same,Reduction of fluconazole MIC90 by milbemycin α9,[19]; C. glabrata (n=12),16 fold
same,"Fluconazole MIC90, + milbemycin α9","[19]; C. glabrata n = 12, MIC (80%) in YPD",8 µg/mL
same,MIC,[20]; read-out: Milbemycin α9 MIC,> 64 µg/mL
same,MIC,[20]; [26],0.125 µg/mL
same,"FEPImax (minimal milbemycin α9 conc. for maximum MIC reduction), fluconazole",[20]; YEM-15,16 µg/mL
same,"FEPImax (minimal milbemycin α9 conc. for maximum MIC reduction), itraconazole",[20]; YEM-15,1 µg/mL
same,"FEPImax (minimal milbemycin α9 conc. for maximum MIC reduction), ketoconazole",[20]; YEM-15,4 µg/mL
same,"FEPImax (minimal milbemycin α9 conc. for maximum MIC reduction), terbinafine",[20]; YEM-15,4 µg/mL
same,Fluconazole MIC in the presence of FEPImax,[20]; [27],2 µg/mL
same,Itraconazole MIC in the presence of FEPImax,[20]; [27],0.06 µg/mL
same,Ketoconazole MIC in the presence of FEPImax,[20]; [27],0.015 µg/mL
same,"MIC Reduction Factor, fluconazole",[20]; [27],64
same,"MIC Reduction Factor, itraconazole",[20]; [27],8
same,"MIC Reduction Factor, ketoconazole",[20]; [27],64
same,"MIC Reduction Factor, terbinafine",[20]; [27],1024
same,MIC,[21]; read-out: Milbemycin α9 MIC,> 64 µg/mL
same,MIC,[21]; [26],1 µg/mL
same,"FEPImax (minimal milbemycin α9 conc. for maximum MIC reduction), fluconazole",[21]; YEM-39 (CgCDR),2 µg/mL
same,"FEPImax (minimal milbemycin α9 conc. for maximum MIC reduction), terbinafine",[21]; YEM-39 (CgCDR),2 µg/mL
same,"Pump inhibition (%), fluconazole",[21]; [28],60%
same,"Pump inhibition (%), terbinafine",[21]; [28],66%
same,Fluconazole MIC in the presence of FEPImax,[21]; [29],4 µg/mL
same,"MIC Reduction Factor, fluconazole",[21]; [29],16
same,Inhibition of CgCDR efflux pump from C. glabrata,"[21]; summary of Table 9, fluconazole and terbinafine",60-65%
same,"Fluconazole MIC, + milbemycin α9",[22],≦0.25 μg/ml
same,"Fluconazole MIC, + milbemycin α9",[23],8 µg/mL
